# Data: US20250186391A1, “ORAL COMPLEMENT FACTOR D INHIBITORS” (BioCryst Pharmaceuticals, Inc., priority 2019, published 2025)
# Target: Factor D (Homo sapiens (Human), UniProt P00746)
# Experiment: Factor D esterolytic assay
# Assay type: biochemical
# Conditions: Z-Lys-SBzl substrate, 100 mM HEPES, 500 mM NaCl, pH 7.5, 10% DMSO; tested a minimum of three times; read-out: Measured Ki (IC50) Value for Compounds: IC50
# How it was run: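 Buffer was 100 mM HEPES, 500 mM NaCl, pH 7.5 with 10% DMSO. Compound and Factor D were combined, then Z-Lys-SBzl (1.29 mM) was added either at once or following room-temperature incubation. Rates came from DTNB colour at 405 nm minus 690 nm over 600 s, with percent inhibition giving IC50 over at least three tests.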
# Sequence of Factor D (P00746 26-253): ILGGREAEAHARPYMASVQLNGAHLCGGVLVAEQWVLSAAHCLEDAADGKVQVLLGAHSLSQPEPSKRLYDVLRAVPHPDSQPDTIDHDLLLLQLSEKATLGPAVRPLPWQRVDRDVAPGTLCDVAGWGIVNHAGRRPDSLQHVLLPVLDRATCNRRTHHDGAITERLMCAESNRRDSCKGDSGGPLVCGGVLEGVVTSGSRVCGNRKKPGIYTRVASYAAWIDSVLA
row,Compound,IC50
1,"COc1c(-c2ccc3c(c2)c(COc2ccccc2CC(=O)O)nn3C2CCC2)ccnc1CN [Compound 328d, 2-(2-((5-(2-(aminomethyl)-3-methoxypyridin-4-yl)-1-cyclobutyl-1H-indazol-3-yl)methoxy)phenyl)acetic acid]",> 10 µM
2,"COc1c(-c2cc3c(COc4ccccc4CC(=O)O)cccc3o2)ccnc1CN [Compound 329d, 2-(2-((2-(2-(aminomethyl)-3-methoxypyridin-4-yl)benzofuran-4-yl)methoxy)phenyl)acetic acid]",1 to 10 µM
3,"CC(C)n1nc(COc2ccccc2CC(=O)O)c2cc(-c3cc(CN)cc(C4CC4)c3)ccc21 [Compound 331e, 2-(2-((5-(3-(aminomethyl)-5-cyclopropylphenyl)-1-isopropyl-1H-indazol-3-yl)methoxy)phenyl)acetic acid]",1 to 10 µM
4,"CC(C)n1nc(COc2ccccc2CC(=O)O)c2cc(-c3cc(CN)cc(C4CCOCC4)c3)ccc21 [Compound 332e, 2-(2-((5-(3-(aminomethyl)-5-(tetrahydro-2H-pyran-4-yl)phenyl)-1-isopropyl-1H-indazol-3-yl)methoxy)phenyl)acetic acid]",> 10 µM
5,"CC(C)n1nc(COc2ccccc2CC(=O)O)c2cc(-c3cc(CN)cc(C4CCN(C)CC4)c3)ccc21 [Compound 333f, 2-(2-((5-(3-(aminomethyl)-5-(1-methylpiperidin-4-yl)phenyl)-1-isopropyl-1H-indazol-3-yl)methoxy)phenyl)acetic acid]",> 10 µM

# Next, values leading:
row,IC50,Compound
1,1 to 10 µM,"COc1c(CN)cccc1-c1ccc2c(c1)c(COc1ccccc1CC(=O)O)nn2C(C)C [Compound 325b, 2-(2-((5-(3-(aminomethyl)-2-methoxyphenyl)-1-isopropyl-1H-indazol-3-yl)methoxy)phenyl)acetic acid]"
2,1 to 10 µM,"COc1c(-c2ccc3c(c2)c(COc2ccccc2CC(=O)O)nn3C(C)C)ccnc1CN [Compound 326d, 2-(2-((5-(2-(aminomethyl)-3-methoxypyridin-4-yl)-1-isopropyl-1H-indazol-3-yl)methoxy)phenyl)acetic acid]"
3,1 to 10 µM,"COc1c(-c2ccc3c(c2)c(COc2ccccc2CC(=O)O)nn3C2CCCC2)ccnc1CN [Compound 327d, 2-(2-((5-(2-(aminomethyl)-3-methoxypyridin-4-yl)-1-cyclopentyl-1H-indazol-3-yl)methoxy)phenyl)acetic acid]"
4,< 1 µM,"Cc1c(CN)cccc1-c1ccc2c(c1)c(COc1ccccc1CC(=O)O)nn2C(C)C [Compound 330c, 2-(2-((5-(3-(aminomethyl)-2-methylphenyl)-1-isopropyl-1H-indazol-3-yl)methoxy)phenyl)acetic acid]"
5,< 1 µM,"Cn1nc(COc2ccccc2CC(=O)O)c2cc(-c3cccc(CN)c3)c3occc3c21 [Compound 3021, 2-(2-((5-(3-(aminomethyl)phenyl)-1-methyl-1H-furo[2,3-g]indazol-3-yl)methoxy)phenyl)acetic acid]"
